Data as given in patent publication US20060251638A1, “Cytoprotection through the use of hif hydroxylase inhibitors” (priority 2003, published 2006).

Columns and labels:
caspase-3 and caspase-7 = assay: Caspase-3 and caspase-7 fluorometric assay in SH-SY5Y cells challenged with staurosporin; assay type: cell-based, human
Procedure: SH-SY5Y cells (human neuroblastoma cells) were plated in 96-well culture plates at 60,000 cells per well. Following overnight incubation, cells were washed one time with DMEM containing 1% fetal bovine serum and cultured in identical media with either vehicle control (DMSO) or 20 μM compound G in a total volume of 200 μl per well. After 24 hours, cells were washed with serum-free media and then incubated with DMEM containing 10% fetal bovine serum with either vehicle control (DMSO) or 20 μM compound G in a total volume of 200 μl per well. Replicate cultures received DMEM with 1% fetal bovine serum and were cultured with either vehicle control (DMSO) or 20 μM compound G, in the absence or presence of 500 nM staurosporin, a kinase inhibitor that induces cellular apoptosis by a caspase-dependent mechanism. (Jacobsen et al. (1996) J Cell Biol. 133:1041-51.). After an additional 24 hour incubation, caspase activity was assayed using a caspase-3 and caspase-7 fluorometric assay according to the manufacturer's instructions (Apo-ONE Homogenous Caspase 3/7 Assay, Promega, Wis.).

[1] = test system: gene encoding adrenomedullin; assay: Adrenomedullin gene expression in Hep3B cells (microarray); assay type: cell-based, human; conditions: 25 μM compound, 6 hrs, average of two determinations
Procedure: Hep3B cells (ATCC No. HB-8064) were grown in DMEM containing 8% fetal bovine serum. Hep3B cells were seeded into 6-well culture dishes at ˜500,000 cells per well. After 8 hours, the media was changed to DMEM containing 0.5% fetal bovine serum and the cells were incubated for an additional 16 hours. Compound A, compound B, compound C, compound G, or compound H was added to the cells (25 μM final concentration) and the cells were incubated for various times. Control cells were incubated with vehicle (DMSO) with no compound treatment. Harvested cells were assessed for cell viability (GUAVA), or added to RNA extraction buffer (RNeasy, Qiagen) and stored at −20° C. for subsequent RNA purification.
RNA was precipitated in 0.3 M sodium acetate (pH 5.2), 50 ng/ml glycogen, and 2.5 volumes of ethanol for one hour at −20° C. Samples were centrifuged and pellets were washed with cold 80% ethanol, dried, and resuspend in water. Double stranded cDNA was synthesized using a T7-(dT)24 first strand primer (Affymetrix, Inc., Santa Clara Calif.) and the SUPERSCRIPT CHOICE system (Invitrogen) according to the manufacturer's instructions. The final cDNA was extracted with an equal volume of 25:24:1 phenol:chloroform:isoamyl alcohol using a PHASE LOCK GEL insert (Brinkman, Inc., Westbury N.Y.). The aqueous phase was collected and cDNA was precipitated using 0.5 volumes of 7.5 M ammonium acetate and 2.5 volumes of ethanol. Alternatively, cDNA was purified using the GENECHIP sample cleanup module (Affymetrix) according to the manufacturer's instructions.
Biotin-labeled cRNA was synthesized from the cDNA in an in vitro […] (IVT) reaction using a BIOARRAY HighYield RNA transcript labeling kit (Enzo Diagnostics, Inc., Farmingdale N.Y.) according to the manufacturer's instructions. Final labeled product was purified and fragmented using the GENECHIP sample cleanup module (Affymetrix) according to the manufacturer's instructions.
Hybridization cocktail was prepared by bringing 5 μg probe to 100 μl in 1× hybridization buffer (100 mM MES, 1 M [Na^+], 20 mM EDTA, 0.01% Tween 20), 100 μg/ml herring sperm DNA, 500 μg/ml acetylated BSA, 0.03 nM contol oligo B2 (Affymetrix), and 1× GENECHIP eukaryotic hybridization control (Affymetrix). The cocktail was sequentially incubated at 99° C. for 5 minutes and 45° C. for 5 minutes, and then centrifuged for 5 minutes. The […] array (Affymetrix) was brought to room temperature and then prehybridized with 1× hybridization buffer at 45° C. for 10 minutes with rotation. The buffer was then replaced with 80 μl hybridization cocktail and the array was hybridized for 16 hours at 45° C. at 60 rpm with counter balance. Following hybridization, arrays were washed once with 6×SSPE, 0.1% Tween 20, and then washed and stained using R-phycoerythrin-conjugated streptavidin (Molecular Probes, Eugene Oreg.), goat anti-streptavidin antibody (Vector Laboratories, Burlingame Calif.), and a GENECHIP Fluidics Station 400 instrument (Affymetrix) according to the manufacturer's EukGE-WS2v4 protocol (Affymetrix). Arrays were analyzed using a GENEARRAY scanner (Affymetrix) and Microarray Suite software (Affymetrix).
RNA quality was monitored by capillary electrophoresis (Agilent Bioanalyzer). […] Array performance was analyzed with Affymetrix MicroArray Suite (MAS) software and individual probe sets were assigned “present”, “marginal, and “absent” calls according to software defaults. […]

H9c2 rat cardiomyocytes = assay: Intracellular ATP levels and morphology of H9c2 cardiomyocytes under homocysteic acid (HCA) oxidative stress; assay type: cell-based
Procedure: H9c2 rat cardiomyocytes were incubated with 10 mM homocysteic acid (HCA) in the absence or presence of various concentrations of compound G as indicated for 24 hours. Cell viability was determined by measuring intracellular ATP levels. Quantitation of intracellular ATP levels was performed using the ViaLight Plus™ kit (Cambrex Cat. No. LT17-221) according to the manufacturers instructions.
Phase contrast microscopy of cells treated with HCA correlated with the results shown for intracellular ATP levels in vehicle (DMSO) and compound G treated cells.

[2] = test system: gene encoding adrenomedullin; assay: Adrenomedullin gene expression in peripheral blood mononuclear cells; assay type: cell-based; conditions: human PBMCs, 5 μM, 20 hours
Procedure: Adrenomedullin gene expression following compound treatment was also examined in peripheral blood mononuclear cells (PBMCs). Whole human blood was collected and processed immediately. The blood was diluted with an equal volume of phosphate buffered saline. FICOLL-PAQUE PLUS (Amersham Biosciences) was layered under the blood and the tubes were centrifuged at 350×g for 12 minutes at room temperature. PBMCs formed a visible layer in the middle layer of the tube. PBMCs were carefully removed from the tube, diluted with 3 volumes of phosphate buffered saline, and pelleted by centrifugation for 5 minutes at 300×g at room temperature. PBMCs were cultured in DMEM containing 2.5% fetal bovine serum and treated with either 0.25% DMSO or compound G (5 μM) in 0.25% DMSO for 20 hours. The cells were then pelleted and stored at −20° C. in RLT lysis buffer (Qiagen Inc., Valencia, Calif.) containing 1% beta-mercaptoethanol. Total RNA was isolated using the RNeasy kit (Valencia, Calif.).

`O=C(O)CNC(=O)c1ncc2cc(Oc3ccccc3)ccc2c1O` [Compound G, [(4-Hydroxy-7-phenoxy-isoquinoline-3-carbonyl)-amino]-acetic acid] was tested, and the “caspase activity after staurosporine challenge” value (caspase-3 and caspase-7; 20 μM pretreatment, 500 nM staurosporin, 1% fetal bovine serum, FIG. 1) was “significantly inhibited”, the “caspase activity in cells not undergoing apoptosis, versus DMSO” value (caspase-3 and caspase-7; 20 μM, 10% fetal bovine serum, no staurosporin) was “no differences in caspase activity” and the “Adrenomedullin gene expression, fold-increase above non-treated control” value [1] was 3.278 fold. The “intracellular ATP levels in the presence of HCA versus vehicle” value (H9c2 rat cardiomyocytes; H9c2, 10 mM HCA, various concentrations, 24 hours, FIG. 2) was “dose-dependent increases in intracellular ATP levels”, the “cell morphology by phase contrast microscopy under HCA” value (H9c2 rat cardiomyocytes; H9c2, HCA, 30 μM compound, FIG. 3) was “still confluent, appeared less rounded, and maintained a morphology consistent with viable cardiomyoctes” and the “intracellular ATP levels in cells not incubated with HCA” value (H9c2 rat cardiomyocytes; H9c2, no HCA, data not shown) was “unchanged”. The “increase in expression of the gene encoding adrenomedullin compared to non-treated control cells” value [2] was “greater than 3.518 fold”.
